Results on 24 compounds are retold here after patent publication US20090062251A1, “Novel Compounds 002” (ASTRAZENECA AB, priority 2007, published 2009).

The target of experiment [1] is T1, Human CB1 receptor (hCB1) (Homo sapiens, UniProt P21554).
T1 construct: purchased Receptor Biology
Put plainly: hCB1 receptor binding (3H-CP55,940 displacement). The settings on record: hCB1 membranes, Ki=IC50/(1+[rad]/Kd). As for the experimental part:
hCB1 and hCB2 Receptor Binding
Human CB1 receptor from Receptor Biology (hCB1) or human CB2 receptor from BioSignal (hCB2) membranes are thawed at 37° C., passed 3 times through a 25-gauge blunt-end needle, diluted in the cannabinoid binding buffer (50 mM Tris, 2.5 mM EDTA, 5 mM MgCl2, and 0.5 mg/mL BSA fatty acid free, pH 7.4) and aliquots containing the appropriate amount of protein are distributed in 96-well plates. […] The total and non-specific binding are determined in the absence and presence of 0.2 μM of HU210 respectively. The plates are vortexed and incubated for 60 minutes at room temperature, filtered through Unifilters GF/B (presoaked in 0.1% polyethyleneimine) with the Tomtec or Packard harvester using 3 mL of wash buffer (50 mM Tris, 5 mM MgCl2, 0.5 mg BSA pH 7.0). The filters are dried for 1 hour at 55° C. The radioactivity (cpm) is counted in a TopCount (Packard) after adding 65 μl/well of MS-20 scintillation liquid.
Based on the above assays, the dissociation constant (Ki) for a particular compound of the invention towards a particular receptor is determined using the following equation:
[rad] is a standard or reference radioactive ligand concentration at that moment; and
Kd is the dissociation constant of the radioactive ligand towards the particular receptor.

For experiment [2], the target named is T1, Human CB1 receptor (hCB1). Put plainly: hCB1 GTPγS binding. The experiment is classed as biochemical. As to conditions: for EC50: hCB1 membranes, GTPγ35S, 10-point dose-response; for Emax: maximal stimulated binding determined with 10 μM Win 55,212-2. As for the experimental part: hCB1 and hCB2 GTPγS Binding
Human CB1 receptor from Receptor Biology (hCB1) or human CB2 receptor membranes (BioSignal) are thawed at 37° C., passed 3 times through a 25-gauge blunt-end needle and diluted in the GTPγS binding buffer (50 mM Hepes, 20 mM NaOH, 100 mM NaCl, 1 mM EDTA, 5 mM MgCl2, pH 7.4, 0.1% BSA). […] The basal and maximal stimulated binding is determined in absence and presence of 1 μM (hCB2) or 10 μM (hCB1) Win 55, 212-2 respectively. The membranes are pre-incubated for 5 minutes with 56.25 μM (hCB2) or 112.5 μM (hCB1) GDP prior to distribution in plates (15 μM (hCB2) or 30 μM (hCB1) GDP final). The plates are vortexed and incubated for 60 minutes at room temperature, filtered on Unifilters GF/B (presoaked in water) with the Tomtec or Packard harvester using 3 ml of wash buffer (50 mM Tris, 5 mM MgCl2, 50 mM NaCl, pH 7.0). The filters are dried for 1 hour at 55° C. The radioactivity (cpm) is counted in a TopCount (Packard) after adding 65 μl/well of MS-20 scintillation liquid. Antagonist reversal studies are done in the same way except that (a) an agonist dose-response curve is done in the presence of a constant concentration of antagonist, or (b) an antagonist dose-response curve is done in the presence of a constant concentration of agonist.
(In general: GTPγS is a poorly hydrolysed GTP analogue; its binding reports G protein activation.)

T1 sequence (P21554 whole entry): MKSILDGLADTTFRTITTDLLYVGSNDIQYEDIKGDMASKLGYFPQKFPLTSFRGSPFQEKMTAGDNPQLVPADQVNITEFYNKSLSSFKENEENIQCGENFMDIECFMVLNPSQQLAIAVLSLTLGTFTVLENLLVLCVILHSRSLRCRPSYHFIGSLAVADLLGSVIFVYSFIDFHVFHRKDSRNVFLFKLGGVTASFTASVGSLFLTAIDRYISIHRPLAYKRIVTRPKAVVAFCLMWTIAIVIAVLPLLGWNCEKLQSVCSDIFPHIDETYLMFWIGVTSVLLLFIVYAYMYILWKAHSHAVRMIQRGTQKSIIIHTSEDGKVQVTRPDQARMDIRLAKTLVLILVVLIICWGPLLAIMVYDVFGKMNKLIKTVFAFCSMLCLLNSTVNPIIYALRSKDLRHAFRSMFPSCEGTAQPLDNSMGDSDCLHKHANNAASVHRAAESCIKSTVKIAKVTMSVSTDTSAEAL

Usually Ki stands for a measure of affinity in units of concentration, obtained from inhibition or displacement. Read a high Ki as weaker binding. In general, EC50 refers to the concentration needed to bring the measured effect to its halfway point. Low readings indicate greater potency, high ones weaker potency. What is called Emax is the maximal effect, on the per cent scale that the assay sets. In experiment [1], `CC(C)C(=O)NC1CCCN(C(=O)c2ccc3c(c2)c2c(n3C)CCC(C3CCOCC3)C2)C1` (centres unmarked) [2-methyl-N-[1-[9-methyl-6-(oxan-4-yl)5,6,7,8-tetrahydrocarbazole-3-carbonyl]-3-piperidyl]propanamide] displayed a Ki of 157 nM. In experiment [2], this compound yielded an EC50 of 401 nM and a maximal response (Emax) of 118%.

`CN(CC(=O)NC1CC1)C(=O)c1ccc2c(c1)c1c(n2S(C)(=O)=O)CCC(C2CCCCC2)C1` (centres unmarked) [6-cyclohexyl-N-(cyclopropylcarbamoylmethyl)-N-methyl-9-methylsulfonyl-5,6,7,8-tetrahydrocarbazole-3-carboxamide] came in with a Ki in experiment [1] of 7.9 nM. Further, in experiment [2], the EC50 stood at 31.3 nM and the Emax was found to be 111%.

Compound `CC(C)S(=O)(=O)n1c2c(c3cc(C(=O)N(C)CC(=O)NC4CC4)ccc31)CC(C1CCCCC1)CC2` (centres unmarked) [6-cyclohexyl-N-(cyclopropylcarbamoylmethyl)-N-methyl-9-propan-2-ylsulfonyl-5,6,7,8-tetrahydrocarbazole-3-carboxamide] came in with a Ki in experiment [1] of 21.2 nM. In experiment [2], this compound had an EC50 of 43.9 nM and an Emax of 110%.

Consider `CCNC(=O)CN(CC)C(=O)c1ccc2c(c1)c1c(n2CC2CC2)CCC(C2CCOCC2)C1` (centres unmarked) [9-(cyclopropylmethyl)-N-ethyl-N-(ethylcarbamoylmethyl)-6-(oxan-4-yl)-5,6,7,8-tetrahydrocarbazole-3-carboxamide], for which, in experiment [1], affinity was put at a Ki of 65.2 nM. In experiment [2], this compound showed an EC50 of 157 nM and an Emax of 90%.

The compound `CCN(CC(=O)NC(C)C)C(=O)c1ccc2c(c1)c1c(n2C2CCC2)CCC(C2CCOCC2)C1` (centres unmarked) [9-cyclobutyl-N-ethyl-6-(oxan-4-yl)-N-(propan-2-ylcarbamoylmethyl)-5,6,7,8-tetrahydrocarbazole-3-carboxamide] displayed a Ki in experiment [1] of 152 nM. Further, in experiment [2], the midpoint of the response, the EC50, lay at 293 nM and the Emax is 70%.

In turn, `CCN(CC(=O)NCCF)C(=O)c1ccc2c(c1)c1c(n2C2CCC2)CCC(C2CCOCC2)C1` (centres unmarked) [9-cyclobutyl-N-ethyl-N-(2-fluoroethylcarbamoylmethyl)-6-(oxan-4-yl)-5,6,7,8-tetrahydrocarbazole-3-carboxamide] showed a Ki in experiment [1] of 131 nM. In experiment [2], the EC50 is 279 nM and the Emax was 80%.

With `CCNC(=O)CN(CC)C(=O)c1ccc2c(c1)c1c(n2C2CCC2)CCC(C2CCOCC2)C1` (centres unmarked) [9-cyclobutyl-N-ethyl-N-(ethylcarbamoylmethyl)-6-(oxan-4-yl)-5,6,7,8-tetrahydrocarbazole-3-carboxamide], affinity in experiment [1] was put at a Ki of 113 nM. Further, in experiment [2], the EC50 was 233 nM and the Emax was found to be 82%.

Compound `CCn1c2c(c3cc(C(=O)N(C)CCCC(=O)NCCF)ccc31)CC(C1CCOCC1)CC2` (centres unmarked) [9-ethyl-N-[3-(2-fluoroethylcarbamoyl)propyl]-N-methyl-6-(oxan-4-yl)-5,6,7,8-tetrahydrocarbazole-3-carboxamide] displayed a Ki in experiment [1] of 25.8 nM. In experiment [2], it took 60.3 nM to reach a half-maximal effect (EC50) and the Emax turned out to be 119%.

`CCn1c2c(c3cc(C(=O)N(C)CCCC(=O)NCCO)ccc31)CC(C1CCOCC1)CC2` (centres unmarked) [9-ethyl-N-[3-(2-hydroxyethylcarbamoyl)propyl]-N-methyl-6-(oxan-4-yl)-5,6,7,8-tetrahydrocarbazole-3-carboxamide] gave a Ki in experiment [1] of 236 nM. In experiment [2], this compound gave an EC50 of 597 nM and an Emax of 119%.

For `CCn1c2c(c3cc(C(=O)N(C)CCCC(=O)NCC(F)(F)F)ccc31)CC(C1CCOCC1)CC2` (centres unmarked) [9-ethyl-N-methyl-6-(oxan-4-yl)-N-[3-(2,2,2-trifluoroethylcarbamoyl)propyl]-5,6,7,8-tetrahydrocarbazole-3-carboxamide], in experiment [1], the affinity corresponds to a Ki of 110 nM. In experiment [2], this compound had an EC50 of 228 nM and an Emax of 98%.

On to `CCn1c2c(c3cc(C(=O)N(C)CCCC(=O)NC)ccc31)CC(C1CCOCC1)CC2` (centres unmarked) [9-ethyl-N-methyl-N-[3-(methylcarbamoyl)propyl]-6-(oxan-4-yl)-5,6,7,8-tetrahydrocarbazole-3-carboxamide], for which affinity in experiment [1] was put at a Ki of 59.2 nM. In experiment [2], this compound registered an EC50 of 146 nM and an Emax of 121%.

`Cn1c2c(c3cc(C(=O)N4CC[C@H](C(=O)NCC(F)F)C4)ccc31)CC(C1CCOCC1)CC2` (stereo partly drawn) [(3S)—N-(2,2-difluoroethyl)-1-[9-methyl-6-(oxan-4-yl)5,6,7,8-tetrahydrocarbazole-3-carbonyl]pyrrolidine-3-carboxamide] returned a Ki in experiment [1] of 49.5 nM. In experiment [2], a half-maximal response (EC50) required 82.6 nM and the Emax is 125%.

Turning to `CNCCN(C)C(=O)c1ccc2c(c1)c1c(n2C)CCC(C2CCOCC2)C1` (centres unmarked) [N,9-dimethyl-N-(2-methylaminoethyl)-6-(oxan-4-yl)-5,6,7,8-tetrahydrocarbazole-3-carboxamide], in experiment [1], the Ki is more than 8720 nM.

For the compound `Cn1c2c(c3cc(C(=O)NCCF)ccc31)CC(C1CCOCC1)CC2` (centres unmarked) [N-(2-fluoroethyl)-9-methyl-6-(oxan-4-yl)-5,6,7,8-tetrahydrocarbazole-3-carboxamide], the Ki in experiment [1] worked out at 659 nM.

`CCN(CC(=O)NCC#N)C(=O)c1ccc2c(c1)c1c(n2C)CCC(C2CCOCC2)C1` (centres unmarked) [N-(cyanomethylcarbamoylmethyl)-N-ethyl-9-methyl-6-(oxan-4-yl)-5,6,7,8-tetrahydrocarbazole-3-carboxamide] yielded a Ki in experiment [1] of 333 nM. Against the preceding compound, the Ki is about 2-fold lower.

With `CN(C(=O)c1ccc2c(c1)c1c(n2C)CCC(C2CCOCC2)C1)C1(C(=O)NC2CC2)CC1` (centres unmarked) [N-[1-(cyclopropylcarbamoyl)cyclopropyl]-N,9-dimethyl-6-(oxan-4-yl)-5,6,7,8-tetrahydrocarbazole-3-carboxamide], the affinity in experiment [1] corresponds to a Ki of 371 nM.

For `CN(CCC(=O)NC1CC1)C(=O)c1ccc2c(c1)c1c(n2C)CCC(C2CCOCC2)C1` (centres unmarked) [N-[2-(cyclopropylcarbamoyl)ethyl]-N,9-dimethyl-6-(oxan-4-yl)-5,6,7,8-tetrahydrocarbazole-3-carboxamide], in experiment [1], the Ki was found to be 655 nM.

For the compound `Cn1c2c(c3cc(C(=O)NCCCC(=O)NC4CC4)ccc31)CC(C1CCOCC1)CC2` (centres unmarked) [N-[3-(cyclopropylcarbamoyl)propyl]-9-methyl-6-(oxan-4-yl)-5,6,7,8-tetrahydrocarbazole-3-carboxamide], in experiment [1], the affinity corresponds to a Ki of 1440 nM.

Compound `CCN(CC(=O)NC1(C#N)CC1)C(=O)c1ccc2c(c1)c1c(n2C)CCC(C2CCOCC2)C1` (centres unmarked) [N-[(1-cyanocyclopropyl)carbamoylmethyl]-N-ethyl-9-methyl-6-(oxan-4-yl)-5,6,7,8-tetrahydrocarbazole-3-carboxamide] had a Ki in experiment [1] of more than 1170 nM.

For `C[C@@H](C(=O)NCCF)N(C)C(=O)c1ccc2c(c1)c1c(n2C)CCC(C2CCOCC2)C1` (stereo partly drawn) [N-[(1S)-1-(2-fluoroethylcarbamoyl)ethyl]-N,9-dimethyl-6-(oxan-4-yl)-5,6,7,8-tetrahydrocarbazole-3-carboxamide], the Ki in experiment [1] is more than 1400 nM.

Compound `C[C@@H](C(=O)NC1CC1)N(C)C(=O)c1ccc2c(c1)c1c(n2C)CCC(C2CCOCC2)C1` (stereo partly drawn) [N-[(1S)-1-(cyclopropylcarbamoyl)ethyl]-N,9-dimethyl-6-(oxan-4-yl)-5,6,7,8-tetrahydrocarbazole-3-carboxamide] had a Ki in experiment [1] of more than 3530 nM.

`Cn1c2c(c3cc(C(=O)N4CC(CC(=O)NC5CC5)C4)ccc31)CC(C1CCOCC1)CC2` (centres unmarked) [N-cyclopropyl-2-[1-[9-methyl-6-(oxan-4-yl)5,6,7,8-tetrahydrocarbazole-3-carbonyl]azetidin-3-yl]acetamide]: the affinity in experiment [1] corresponds to a Ki of 2080 nM.

Consider `CCS(=O)(=O)n1c2c(c3cc(C(=O)N4CC[C@@H](O)C4)ccc31)CC(C1CCOCC1)CC2` (stereo partly drawn) [[9-ethylsulfonyl-6-(oxan-4-yl)-5,6,7,8-tetrahydrocarbazol-3-yl]-[(3R)-3-hydroxypyrrolidin-1-yl]methanone], for which, in experiment [2], the EC50 was more than 3160 nM and the Emax was more than 89%.

Take `CCS(=O)(=O)n1c2c(c3cc(C(=O)N4CC[C@H](O)C4)ccc31)CC(C1CCOCC1)CC2` (stereo partly drawn) [[9-ethylsulfonyl-6-(oxan-4-yl)-5,6,7,8-tetrahydrocarbazol-3-yl]-[(3S)-3-hydroxypyrrolidin-1-yl]methanone]: in experiment [2], it took 4560 nM to reach a half-maximal effect (EC50) and the Emax worked out at 105%.
